Measured values: EP4640240A1, “PEPTIDE-BASED RADIOPHARMACEUTICALS FOR NON-INVASIVE IMAGING OF THE FUNCTIONAL LIVER RESERVE” (Medizinische Universität Innsbruck, priority 2024, dated 2025)
Like-named read-outs stand apart in the source and are kept apart here.

Tests used:
[1] = Protein binding in human serum (MicroSpin G-50 columns); assay type: in vitro ADME; details: fresh human serum, 37 °C, n=3
Method: Protein binding was determined for different time points (2 min, 30 min, 60 min, 120 min) in triplicates using Sephadex MicroSpin G-50 columns (GE-Healthcare, Chicago, Illinois, USA). The columns were spun initially at 20,000 rcf for 1 min to remove the storage buffer. Then approx. 5 MBq of radioligand was added to 1 mL of fresh human serum and incubated at 37 °C. At each given timepoint 25 µL of the mixture was loaded on to the column, which was then spun at 20,000 rcf for 1 min. The activity content on the column (free radioligand) and in the filtrate (protein bound fraction) was quantified in a γ-counter.

[2] = Partition coefficient logD (n-octanol/PBS); assay type: physicochemical; details: n=6
Method: For determination of logarithmic partition coefficients (logD) n-Octanol (500 µL) and PBS (500 µL) were pipetted into eight 1.5 mL Protein Low-Bind Eppendorf tubes followed by addition of 300 kBq of labelled compound. The vials were vortexed for 5 min at 1,500 1/min and then centrifuged for 5 min at 20,000 rcf (Eppendorf Centrifuge 5424). Aliquots of 100 µL were taken out of each phase and the amount of activity was quantified in a γ-counter (Perkin Elmer 2480 Wizard2 3"; Waltham, Massachusetts, USA).

[3] = Biodistribution studies in BALB/c mice; assay type: in vivo; details: for tissue uptake at 10 min / tissue uptake at 0.5 h / tissue uptake at 1 h: female, mouse, iv, total radioactivity, healthy BALB/c mice, 0.1 nmol i.v.; for tissue uptake at 10 min: 10 min p.i.; for tissue uptake at 0.5 h: 30 min p.i.; for tissue uptake at 1 h: 60 min p.i.
Method: For biodistribution studies 6-week-old female BALB/c mice (n=3) were injected with 0.1 nmol (100 µL, approx. 1 MBq) of labelled compound via the lateral tail vein and sacrificed after 10, 30, or 60 min by cervical dislocation. The mice were dissected, blood and organs (spleen, pancreas, stomach, intestine, liver, kidney, heart, lung, muscle and bone) were weighed and their activity measured in a γ-counter. For blocking experiments, mice were co-injected with 27.7 µmοl N-acetylgalactose.

[4] = Stability in human blood serum (radio-HPLC); assay type: in vitro ADME; details: 37 °C
Method: Ligand stability in human blood serum (n = 2) and PBS (pH = 6.5) (n = 1) was determined for different time points (2 min, 30 min, 60 min, 120 min). Therefore, approx. 5 MBq of radioligand was added to 1 mL of fresh human serum at 37 °C or PBS at rt. At each given time point 100 µL of the mixture were transferred to a 1.5 mL Eppendorf tube containing 100 µL of acetonitrile. The vial was vortexed and centrifuged for 2 min at 14,000 1/min before 100 µL of the supernatant were diluted with 200 µL of water and injected into analytical radio-HPLC. The PBS solution was directly injected into the radio-HPLC. Ligand stability was determined by integrating the areas of the signals in the radio chromatogram in relation to the signal of the intact ligand.

[5] = Blood, read-out: Biodistribution data, Blood
[6] = Femur, read-out: Biodistribution data, Femur
[7] = Heart, read-out: Biodistribution data, Heart
[8] = Intestine, read-out: Biodistribution data, Intestine
[9] = Kidneys, read-out: Biodistribution data, Kidneys
[10] = Liver, read-out: Biodistribution data, Liver
[11] = Lung, read-out: Biodistribution data, Lung
[12] = Muscle, read-out: Biodistribution data, Muscle
[13] = Pancreas, read-out: Biodistribution data, Pancreas
[14] = Spleen, read-out: Biodistribution data, Spleen
[15] = Stomach, read-out: Biodistribution data, Stomach

## NC(=O)CNC(=O)CNC(=O)[C@H](CCCCNC(=O)CCCCc1cn(C2O[C@H](CO)[C@H](O)[C@H](O)[C@H]2O)nn1)NC(=O)CNC(=O)CNC(=O)[C@H](CCCCNC(=O)CCCCc1cn(C2O[C@H](CO)[C@H](O)[C@H](O)[C@H]2O)nn1)NC(=O)CNC(=O)CNC(=O)[C@H](CCCCNC(=O)CCCCc1cn(C2O[C@H](CO)[C@H](O)[C@H](O)[C@H]2O)nn1)NC(=O)CCCNC(=O)CC[C@H](C(=O)O)N1CCN(CC(=O)O)CCN(CC(=O)O)CC1 (stereo partly shown) [[68Ga]Ga-TriLysan, metal not drawn]
[1]; 2 min
  fraction unbound at 2 min, 5 MBq/mL: 0.82
[1]; 30 min
  fraction unbound at 30 min, 5 MBq/mL: 0.798
[1]; 60 min
  fraction unbound at 60 min, 5 MBq/mL: 0.831
[1]; 120 min
  fraction unbound: 0.857 ± 0.126
[2]
  logD: -3.52 ± 0.03
[3]; BALB/c mice, comparison with ^99mTc-GSA
  activity accumulation in the liver (in words): low accumulation
[3]; [5]
  tissue uptake at 10 min: 3.64 ± 0.08 %ID/g
  tissue uptake at 0.5 h: 1.6 ± 0.17 %ID/g
  tissue uptake at 1 h: 0.27 ± 0.01 %ID/g
[3]; [6]
  tissue uptake at 10 min: 0.89 ± 0.32 %ID/g
  tissue uptake at 0.5 h: 0.39 ± 0.02 %ID/g
  tissue uptake at 1 h: 0.11 ± 0.01 %ID/g
[3]; [7]
  tissue uptake at 10 min: 1.41 ± 0.01 %ID/g
  tissue uptake at 0.5 h: 0.63 ± 0.04 %ID/g
  tissue uptake at 1 h: 0.15 ± 0.01 %ID/g
[3]; [8]
  tissue uptake at 10 min: 1.24 ± 0.26 %ID/g
  tissue uptake at 0.5 h: 1.13 ± 0.02 %ID/g
  tissue uptake at 1 h: 1.04 ± 0.26 %ID/g
[3]; [9]
  tissue uptake at 10 min: 7.56 ± 1.35 %ID/g
  tissue uptake at 0.5 h: 4.99 ± 0.02 %ID/g
  tissue uptake at 1 h: 1.99 ± 0.34 %ID/g
[3]; [10]
  tissue uptake at 10 min: 9.45 ± 1.58 %ID/g
  tissue uptake at 0.5 h: 9.44 ± 1.99 %ID/g
  tissue uptake at 1 h: 9.19 ± 0.27 %ID/g
[3]; [11]
  tissue uptake at 10 min: 2.56 ± 0.17 %ID/g
  tissue uptake at 0.5 h: 1.15 ± 0.11 %ID/g
  tissue uptake at 1 h: 0.47 ± 0.06 %ID/g
[3]; [12]
  tissue uptake at 10 min: 0.9 ± 0.05 %ID/g
  tissue uptake at 0.5 h: 0.4 ± 0.04 %ID/g
  tissue uptake at 1 h: 0.12 %ID/g
[3]; [13]
  tissue uptake at 10 min: 0.97 ± 0.04 %ID/g
  tissue uptake at 0.5 h: 0.44 %ID/g
  tissue uptake at 1 h: 0.17 ± 0.01 %ID/g
[3]; [14]
  tissue uptake at 10 min: 1 ± 0.01 %ID/g
  tissue uptake at 0.5 h: 0.42 ± 0.02 %ID/g
  tissue uptake at 1 h: 0.16 %ID/g
[3]; [15]
  tissue uptake at 10 min: 1.55 ± 0.24 %ID/g
  tissue uptake at 0.5 h: 0.88 ± 0.09 %ID/g
  tissue uptake at 1 h: 0.31 ± 0.05 %ID/g
[4]; 2 min, n=2, read-out: Serum stability (% of intact ligand)
  remaining at 2 min: 99.9%
[4]; 30 min, n=2, read-out: Serum stability (% of intact ligand)
  remaining at 0.5 h: 99.9%
[4]; 60 min, n=2, read-out: Serum stability (% of intact ligand)
  remaining at 1 h: 99.9%
[4]; 120 min, n=2
  Serum stability (% of intact ligand): 99.9 ± 0%
